Reference: patent US7183075B2, “Purified and isolated potassium-chloride cotransporter nucleic acids and polypeptides and therapeutic and screening methods using same” (Vanderbilt University, priority 2000, dated 2007)
Where two headings read alike, the source gives them in different places. Blank lines part the entries; values can stand above or below the compound they belong to.

Target: T1, rabKCC1 (Oryctolagus cuniculus, UniProt Q28677)
T1 construct: a full-length rabbit KCC1 cDNA was subcloned into pGEMHE; expressed in transfected cells; host or cells: Xenopus laevis oocytes injected with cRNA
T1 sequence (Q28677 1-1085): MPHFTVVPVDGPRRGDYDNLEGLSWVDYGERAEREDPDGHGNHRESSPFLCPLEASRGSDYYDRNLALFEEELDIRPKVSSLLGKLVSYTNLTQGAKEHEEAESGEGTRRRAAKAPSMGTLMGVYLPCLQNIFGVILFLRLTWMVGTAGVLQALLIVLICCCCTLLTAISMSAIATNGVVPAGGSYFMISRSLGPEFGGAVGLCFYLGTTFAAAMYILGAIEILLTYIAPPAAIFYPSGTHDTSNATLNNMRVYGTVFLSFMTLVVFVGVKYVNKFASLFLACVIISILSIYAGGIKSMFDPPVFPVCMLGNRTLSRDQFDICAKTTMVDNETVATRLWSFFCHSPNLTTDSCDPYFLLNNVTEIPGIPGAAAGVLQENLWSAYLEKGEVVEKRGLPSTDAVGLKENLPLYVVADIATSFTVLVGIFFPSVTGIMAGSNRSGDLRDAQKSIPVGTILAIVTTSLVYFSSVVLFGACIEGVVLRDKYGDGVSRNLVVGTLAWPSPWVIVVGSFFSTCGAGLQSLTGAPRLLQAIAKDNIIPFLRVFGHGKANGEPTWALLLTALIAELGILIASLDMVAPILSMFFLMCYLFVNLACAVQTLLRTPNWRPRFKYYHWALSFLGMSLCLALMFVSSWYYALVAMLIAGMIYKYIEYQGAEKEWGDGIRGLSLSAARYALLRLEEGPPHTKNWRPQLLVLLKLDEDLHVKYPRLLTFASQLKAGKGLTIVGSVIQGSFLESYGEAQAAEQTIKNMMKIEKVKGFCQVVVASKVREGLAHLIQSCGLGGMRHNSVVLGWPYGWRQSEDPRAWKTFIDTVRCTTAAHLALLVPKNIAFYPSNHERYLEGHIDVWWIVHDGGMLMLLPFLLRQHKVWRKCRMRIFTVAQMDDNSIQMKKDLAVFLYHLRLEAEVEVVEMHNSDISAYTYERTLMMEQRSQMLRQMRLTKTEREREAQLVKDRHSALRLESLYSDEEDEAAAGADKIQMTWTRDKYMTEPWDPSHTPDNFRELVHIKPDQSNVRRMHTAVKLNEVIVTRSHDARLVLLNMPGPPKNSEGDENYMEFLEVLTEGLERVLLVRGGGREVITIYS
Assay: 86Rb+ uptake (K+-Cl- cotransport) in Xenopus oocytes injected with rabKCC1 cRNA
Assay type: cell-based, rabbit
Conditions: for KCC1 function (86Rb+ uptake, % of control): 2 mM diuretic; for KCC1 function remaining: 100 μM DIDS; for effect on activation of KCC1 by cell swelling: calyculin A 100 nM, okadaic acid 1 nM, cypermethrin 100 pM
Experimental: On the next day, defolliculated stage V–VI oocytes were injected with 50 nl of water or a solution containing cRNA at a concentration of 0.25–0.5 μg/μl (25 ng/oocyte). […] The incubation medium was changed every 24 hours.
For functional comparison with mKCC4, a full-length rabbit KCC1 cDNA was subcloned into pGEMHE. […] To prepare a template for cRNA, the rabbit KCC1 and […] cDNAs were linearized at the 3′-end using NheI, and cRNA was transcribed in vitro using the T7 RNA polymerase and the mMESSAGE mMACHINE kit (Ambion, Inc. of Austin, Tex.). Transcription product integrity was confirmed on agarose gels, and concentration was determined by absorbance reading at 260 nm (DU 640 available from Beckman of Fullerton, Calif.).
K^+—Cl^− cotransport was assessed by measuring tracer ^86Rb^+ uptake (NEN® Life Science Products of Boston, Mass.) in experimental groups of at least 15 oocytes. […] Isotonic conditions were generated by supplementing the same solutions with 3.5 g/100 ml sucrose to reach isosmolar conditions for oocytes (˜210 mOsm/kg). Ouabain was added to prevent ^86Rb^+ uptake via the Na^+—K^+-ATPase.
All uptake assays were performed at 32° C. At the end of the uptake period, oocytes were washed five times in ice-cold uptake solution without isotope to remove extracellular fluid tracer. Oocytes were dissolved in 10% SDS, and tracer activity was determined for each oocyte by β-scintillation counting.
To determine the ion transport kinetics of KCC4 and KCC1, ^86Rb^+ uptake experiments were performed in variable concentrations of K^+ and Cl^−. The sensitivity for several inhibitors was assessed by exposing groups of oocytes to the inhibitors at concentrations varying from […] to 2 mM. For these experiments, the desired concentration of the inhibitor was present during both the incubation and uptake periods, except when noted.

[1] = 2 mM extracellular K+, hypotonic
[2] = 50 mM extracellular K+, hypotonic
[3] = KCC1, counterion fixed at 50 mM, hypotonic
[4] = KCC1, counterion fixed at 50 mM, hypotonic, read-out: apparent Km for extracellular ion

KCC1 function (86Rb+ uptake, % of control) [1]: 51±12%
KCC1 function (86Rb+ uptake, % of control) [2]: 19±7%
IC50 (KCC1, 10 mM extracellular K+, read-out: apparent half-maximal inhibition (K=0.5) of Cl−-dependent 86Rb+ uptake): ~180 µM
Compound: CCCCNc1cc(C(=O)O)cc(S(N)(=O)=O)c1Oc1ccccc1 [bumetanide]

effect on KCC1-induced 86Rb+ uptake (100 μM DIOA, hypotonic): inhibition
Compound: CCCCC1(C2CCCC2)Cc2cc(OCC(=O)O)c(Cl)c(Cl)c2C1=O (centres unmarked) [DIOA]

KCC1 function remaining [1]: 85±6%
KCC1 function remaining [2]: 13±2%
Compound: O=S(=O)(O)c1cc(N=C=S)ccc1C=Cc1ccc(N=C=S)cc1S(=O)(=O)O [DIDS]

Compound: C=C1[C@@H](O)[C@@H]2O[C@]3(CC[C@H](/C=C/[C@@H](C)[C@@H]4CC(C)=C[C@@]5(O[C@H](C[C@@](C)(O)C(=O)O)CC[C@H]5O)O4)O3)CC[C@H]2O[C@@H]1[C@@H](O)C[C@H](C)[C@H]1O[C@@]2(CCCCO2)CC[C@H]1C [okadaic acid]
effect on activation of KCC1 by cell swelling (hypotonic): neither okadaic acid, nor cypermethrin prevented this activation

Compound: CCN1C(=O)C=CC1=O [NEM, N-ethylmaleimide]
reduction of KCC1-induced 86Rb+ uptake (1 mM NEM, hypotonic): 55%
fold activation of KCC1 (1 mM NEM, isotonic): 2.6 fold
86Rb+ uptake in NEM-treated group (KCC1, 1 mM NEM, isotonic): 319±76 pmol×oocyte^−1×hour^−1

Compound: [K+] [Potassium]
Hill coefficient (KCC1): 1.04±0.13
apparent Vmax for extracellular ion [3]: 39,540±2,199 pmol×oocyte^−1×hour^−1
Km [4]: 25.5 ± 3.2 mM
Km (KCC1, read-out: Potassium Km): 25.5 mM

KCC1 function (86Rb+ uptake, % of control) [1]: 64±4%
KCC1 function (86Rb+ uptake, % of control) [2]: 74±8%
Compound: NS(=O)(=O)c1cc2c(cc1Cl)NC(C(Cl)Cl)NS2(=O)=O (centres unmarked) [trichlormethiazide]

Compound: [Ba+2].[Cl-].[Cl-] [BaCl2]
KCC1 function, % of control (10 mM BaCl2 in hypotonic uptake medium): 79±4.2%

Compound: CC1(C)C(C=C(Cl)Cl)C1C(=O)OC(C#N)c1cccc(Oc2ccccc2)c1 (centres unmarked) [cypermethrin]
effect on activation of KCC1 by cell swelling (hypotonic): neither okadaic acid, nor cypermethrin prevented this activation

Compound: HgCl2 [Hg—Cl2]
response of KCC1 to mercury (50 μM HgCl2, hypotonic): resistant

Compound: Cl [Chloride]
Hill coefficient (KCC1): 1.3±0.5
apparent Vmax for extracellular ion [3]: 14,930±2,822 pmol×oocyte^−1×hour^−1
Km [4]: 17.2 ± 8.3 mM
Km (KCC1, read-out: Chloride Km): 17.2 mM

KCC1 function (86Rb+ uptake, % of control) [1]: 9±2%
KCC1 function (86Rb+ uptake, % of control) [2]: 18±8%
Compound: NS(=O)(=O)c1cc(C(=O)O)c(NCc2ccco2)cc1Cl [furosemide]

Compound: COC[C@@H]([C@H](O)[C@H](O)C(=O)NCC[C@H](C)c1nc(/C=C/C[C@@H]2O[C@]3(C[C@@H](O)[C@@H]2C)O[C@H]([C@H](C[C@H](O)[C@H](C)[C@H](O)[C@H](C)/C=C(C)/C(C)=C/C=C/C(C)=C\C#N)OC)[C@H](OP(=O)(O)O)C3(C)C)co1)N(C)C [calyculin A]
effect on activation of KCC1 by cell swelling (hypotonic): completely prevents the activation
